Read-outs that look alike come from different tables or passages of the source.
Experiments:
[1] = target: T1, serotonin S2 (5-HT2) receptors (Rattus norvegicus, UniProt P14842); experiment: inhibition of 3H-ketanserin binding to serotonin S2 (5-HT2) receptors in rat cortex in vitro; conditions: 3H-ketanserin 0.5 nM, rat cortex membranes, read-out: Binding IC50, 3H Ket.
T1 construct: cortical tissue is dissected and weighed; from tissue; host or cells: cerebral cortex membranes of male Wistar (Mol:Wist) rats
Procedure: Method in Hyttel, Pharmacology & Toxicology, 61, 126-129. 1987.
Male Wistar (Mol:Wist) rats (125-250 g) are sacrifices and cortical tissue is dissected and weighed. The tissue is homogenized (Ultra Turrax, 10 sec.) in 10 ml of ice-cold 50 mM tris buffer pH 7.7 (at 25° C.). The centrifuge glassware used in this step has been rinsed by sonication for 10 min. in ethanol. The homogenate is centrifuged twice at 20,000 g for 10 min. at 4° C. with rehomogenization of the pellet in 10 ml ice-cold buffer. The final pellet is homogenized in 500 vol (w/v) ice-cold buffer.
Incubation tubes kept on ice in triplicate receive 100 μl of drug solution in water (or water for total binding) and 2000 μl of tissue suspension (final tissue content corresponds to 4 mg original tissue). […] After incubation for 30 min. the samples are filtered under vacuum (0-50 mBar) through Whatman GF/F filters (25 mm). The tubes are rinsed with 5 ml ice-cold buffer which are then poured on the filters. Thereafter, the filters are washed with 2×5 ml of buffer. The filters are placed in counting vials and 4 ml of appropriate scintillation fluid (e.g., Picofluor™15) are added. After shaking for 1 h and storage 2 hrs in the dark the content of radioactivity is determined by liquid scintillation counting. Specific binding is obtained by subtracting the nonspecific binding in the presence of 1 μM mianserin. For determination of the inhibition of binding five concentrations of drugs covering 3 decades are used.
The IC50 value is determined as the concentration at which the binding is 50% of the total binding in control samples minus the nonspecific binding in the presence of 1 μM mianserin.

5-HT2 = target: T2, 5-HT2 (Rattus norvegicus, UniProt P14842); experiment: quipazine inhibition (quipazine-induced head twitches in rats); assay type: in vivo
T2 construct: Four rats, male Wistar (Mol:Wist) SPF rats weighing 170-240 g; from tissue; host or cells: living male Wistar (Mol:Wist) SPF rats (in vivo, endogenous receptor)
Procedure: Quipazine is a 5-HT2 agonist, which induces head twitches in rats. The test is a test for 5-HT2 -antagonistic effect testing the ability to inhibit head twitches. The method and test results for some reference substances are published by Arnt et al. (Drug Development Research, 16, 59-70, 1989).
Test substance is injected s.c. 2 hrs before or p.o. 24 hrs before quipazine administration (6.8 mg/kg, s.c., dimaleate). Four rats, male Wistar (Mol:Wist) SPF rats weighing 170-240 g, are used at each dose level. A control group is included each test day. By repeated testing (2, 24 hrs) the control group is the same, however. After quipazine administration the rats are individually placed in the observation cages and head twitches are counted in an observation period of 30-40 min. after injection of quipazine.
Total number of head twitches in each group is calculated and the result for each dose is expressed as per cent of the response in the control group. ED50 values are calculated by log-probit analysis. The test must be repeated if the average number of head twitches is lower than 9 in the control group.

DA D-2 = target: T3, DA D-2 (Rattus norvegicus, UniProt P61169); experiment: antagonism of pergolide-induced circling behaviour in rats with unilateral 6-OHDA lesions; assay type: in vivo; conditions: sc, read-out: Pergolide rot. inhibition ED50, 2h (sc), 6-OHDA lesions, s.c., 2 h before pergolide
T3 construct: Male Wistar rats (Mol:Wist) weighing about 200 g at the time of operation are used; from tissue; host or cells: living male Wistar (Mol:Wist) rats with unilateral 6-OHDA lesions (in vivo, endogenous receptor)
Procedure: ANTAGONISM OF PERGOLIDE-INDUCED CIRCLING BEHAVIOUR IN RATS WITH UNILATERAL 6-OHDA LESIONS
Dopamine (DA) D-2 agonists induce contralateral circling behaviour in rats with 6-OHDA lesions. Pergolide-induced circling is antagonized by DA D-2 antagonists.
Male Wistar rats (Mol:Wist) weighing about 200 g at the time of operation are used. Unilateral lesions are made in pentobarbital anaesthetized rats by injection of 6-OHDA. HCl 9.7 μg/μl (equivalent to 8 μg free base) per 4 min. into the rostral tip of the substantia nigra. The saline solution contains ascorbic acid 0.2 mg/ml, is bubbled with N2 and is kept ice-cold. The experiments are done when stable contralateral circling responses to pergolide (0.05 μmol/kg, s.c.) are obtained. The circling response is measured in rotometer bowls. Only rats showing more than 400 complete turns in 2 hrs control session are used. Dose-response curves are obtained by alternating test and control sessions on a weekly basis. The antagonists are injected s.c. 2 hrs before the agonist. The effect of individual doses of test drugs is calculated as per cent of the mean effect of control sessions one week before and one week after the test session for each rat. ED50 values are calculated by log-probit analysis. Four to eight rats are used at each dosage.

dopamine D-2 receptors = target: T4, dopamine D-2 receptors (Rattus norvegicus, UniProt P61169); experiment: inhibition of 3H-spiperone binding to dopamine D-2 receptors in rat corpus striatum in vitro; conditions: 3H-spiperone 0.5 nM, rat corpus striatum membranes, in vitro; read-out: Binding IC50, 3H Spi.
T4 construct: striatal tissue is dissected and weighed; from tissue; host or cells: corpus striatum membranes of male Wistar rats
Procedure: INHIBITION OF ^3 H-SPIPERONE BINDING TO DOPAMINE D-2 RECEPTORS IN RAT CORPUS STRIATUM IN VITRO
By this method the inhibition by drugs of the binding of ^3 H-spiperone (0.5 nM) to dopamine D-2 receptors in membranes from rat corpus striatum is determined in vitro. Method and results in Hyttel and Larsen, J. Neurochem, 44, 1615-1622, 1985).
(§1) Male Wistar (Mol:Wistar) rats (125-250 g) are sacrificed and striatal tissue is dissected and weighed. The tissue is homogenized (Ultra Turrax, 10 sec.) in 10 ml of ice-cold 50 mM K-phosphate buffer pH 7.4 (at 25° C.). The homogenate is centrifuged twice at 20,000 g for 10 min. at 4° C. with rehomogenization of the pellet in 10 ml ice-cold buffer. The final pellet is homogenized in 1300 vol (w/v) ice-cold buffer.
Incubation tubes kept on ice in triplicate receive 100 μl of drug solution in water (or water for total binding) and 4000 μl of tissue suspension (final tissue content corresponds to 3.08 mg original tissue). The binding experimental is initiated by addition of 100 μl of ^3 H-spiperone (final concentration 0.5 nM) and by placing the tubes in a 37° C. water bath. After incubation for 10 min. the samples are filtered under vacuum (0-50 mBar) through Whatman GF/F filters (25 mm). The tubes are rinsed with 5 ml ice-cold buffer which are then poured on the filters. Thereafter, the filters are washed with 2×5 ml of buffer. The filters are placed in counting vials and 4 ml of appropriate scintillation fluid (e.g. Picofluor ™15) are added. After shaking for 1 h and storage 2 hrs in the dark the content of radioactivity is determined by liquid scintillation counting. Specific binding is obtained by subtracting the nonspecific binding in the presence of 10 μM of 6,7-ADTN.
(§2) For determination of the inhibition of binding five concentrations of drugs covering 3 decades are used.
England, specific activity 15-25 Ci/mmol.

α1 adrenoceptors = experiment: inhibition of 3H-prazosin binding to α1 adrenoceptors in rat brain in vitro; conditions: 3H-prazosin 0.25 nM, rat brain membranes, read-out: Binding IC50, 3H Praz.
Procedure: INHIBITION OF ^3 H-PRAZOSIN BINDING TO α1 ADRENOCEPTORS IN RAT BRAIN IN VITRO
Method and results in Hyttel and Larsen, J. Neurochem, 44, 1615-1622, 1985; Skarsfeldt and Hyttel, Eur. J. Pharmacol. 125, 323-340, 1986.
as §1, with “(Mol:Wist)” for “(Mol:Wistar)”, “(125-200” for “(125-250”, “brain” for “striatal”, “[…] Tris” for “mM K-phosphate”, “7.7” for “7.4”, “400” for “1300”
Incubation tubes kept on ice in triplicate receive 100 μl of drug solution in water (or water for total binding) and 4000 μl of tissue suspension (final tissue content corresponds to 10 mg original tissue). The binding experiment is initiated by addition of 100 μl of ^3 H-Prazosin (final concentration 0.25 nM) and by placing the tubes in a 25° C. water bath. After incubation for 20 min. the samples are filtered under vacuum (0-50 mBar) through Whatman GF/F filters (25 mm). The tubes are rinsed with 5 ml ice-cold buffer which then are poured on the filters. Thereafter, the filters are washed with 5 ml of buffer. The filters are placed in counting vials and 4 ml of appropriate scintillation fluid (e.g. Picofluor™15) are added. After shaking for 1 h and storage 2 hrs in the dark the content of radioactivity is determined by liquid scintillation counting. Specific binding is obtained by subtracting the nonspecific binding in the presence of 1 μM of Prazosin.
as §2
The measured cpm are plotted against drug concentration on semilogarithmic paper and the best fitting S-shaped curve is drawn. The IC50 value is determined as the concentration at which the binding is 50% of the total binding in control samples minus the nonspecific binding in the presence of 1 μM of Prazosin. ^3 H-Prazosin=[furoyl-5-^3 H]-Prazosin from New England Nuclear, specific activity approximately 20 Ci/mmol.

[2] = sc, 2 h, read-out: Quipazine inhibition ED50, 2h (sc)
[3] = po, 24 h, read-out: Quipazine inhibition ED50, 24h (po)

T4 sequence (P61169 whole entry): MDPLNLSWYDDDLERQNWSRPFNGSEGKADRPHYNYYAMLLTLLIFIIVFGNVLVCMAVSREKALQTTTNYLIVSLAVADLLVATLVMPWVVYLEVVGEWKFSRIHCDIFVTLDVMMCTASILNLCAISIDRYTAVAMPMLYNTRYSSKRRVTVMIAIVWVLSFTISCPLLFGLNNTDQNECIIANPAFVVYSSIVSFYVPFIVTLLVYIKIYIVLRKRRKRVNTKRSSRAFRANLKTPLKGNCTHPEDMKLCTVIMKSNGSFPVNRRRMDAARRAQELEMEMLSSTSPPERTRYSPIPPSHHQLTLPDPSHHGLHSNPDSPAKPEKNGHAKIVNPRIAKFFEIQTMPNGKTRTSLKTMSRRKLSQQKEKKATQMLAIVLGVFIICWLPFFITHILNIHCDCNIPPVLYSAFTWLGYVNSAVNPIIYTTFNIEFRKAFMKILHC
T2 sequence (P14842 whole entry): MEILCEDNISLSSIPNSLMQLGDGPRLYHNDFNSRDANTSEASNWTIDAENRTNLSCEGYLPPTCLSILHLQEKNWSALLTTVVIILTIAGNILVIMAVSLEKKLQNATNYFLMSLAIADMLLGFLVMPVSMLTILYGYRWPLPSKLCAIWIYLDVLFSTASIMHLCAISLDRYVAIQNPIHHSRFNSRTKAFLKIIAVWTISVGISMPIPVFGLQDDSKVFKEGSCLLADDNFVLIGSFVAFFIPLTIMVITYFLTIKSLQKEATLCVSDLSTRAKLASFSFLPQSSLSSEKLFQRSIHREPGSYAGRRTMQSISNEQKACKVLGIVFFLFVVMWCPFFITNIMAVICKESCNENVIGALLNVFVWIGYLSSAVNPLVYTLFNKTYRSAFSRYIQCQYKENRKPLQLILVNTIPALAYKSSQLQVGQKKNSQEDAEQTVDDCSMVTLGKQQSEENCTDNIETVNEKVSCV
T1 sequence (P14842 whole entry): as above
T3 sequence (P61169 whole entry): as the sequence (P61169 whole entry) above

| Compound | IC50 [1] | ED50 (5-HT2; [2]) | ED50 (DA D-2) | ED50 (5-HT2; [3]) | IC50 (dopamine D-2 receptors) | IC50 (α1 adrenoceptors) |
| --- | --- | --- | --- | --- | --- | --- |
| O=C1NCCN1CCN1CCC(c2cn(-c3ccc(F)cc3)c3cc(Cl)ccc23)CC1 [Compound 4b, 6-chloro-1-(4-fluorophenyl)-3-[1-[2-(2-imidazolidinon-1yl)ethyl]-4-piperidyl]-1H-indole] | 0.0014 µM | 0.06 µmol/kg | > 23 µmol/kg |  |  |  |
| O=C1NCCN1CCN1CCC(c2cn(-c3ccc(F)cc3)c3cc(Cl)c(Cl)cc23)CC1 [Compound 5f, 5,6-dichloro-1-(4-fluorophenyl)-3-[1-[2-(2-imidazolidinon-1-yl)ethyl]-4-piperidyl]-1H-indole] | 0.0035 µM | 0.12 µmol/kg | > 42 µmol/kg | 0.04 µmol/kg |  |  |
| Cc1ccc2c(N3CCN(CCN4CCN(C(C)C)C4=O)CC3)cn(-c3ccc(F)cc3)c2c1 [Compound 6b, 1-(4-fluorophenyl)-6-methyl-3-[4-[2-[3-(2-propyl)-2-imidazolidinon-1-yl]ethyl]-1-piperazinyl]-1H-indole] | 0.0027 µM | 0.04 µmol/kg |  |  | 0.18 µM | 0.076 µM |
| Cc1ccc2c(C3CCN(CCNC(=O)N(C)C)CC3)cn(-c3ccc(F)cc3)c2c1 [Compound 9b, 3-[1-[2-(3,3-dimethyl-1-ureido)-1-ethyl]-4-piperidyl]-1-(4-fluorophenyl)-6-methyl-1H-indole] | 0.0026 µM | 0.12 µmol/kg |  | < 0.14 µmol/kg |  |  |
| Cc1ccc2c(C3CCN(CCN4CCN(C(C)C)C4=O)CC3)cn(-c3ccccc3)c2c1 [Compound 15a] | 0.002 µM | 0.01 µmol/kg |  |  | 0.5 µM | 0.12 µM |
| Cc1ccc2c(C3CCN(CCN4CCN(C(C)C)C4=O)CC3)cn(-c3cccc(F)c3)c2c1 [Compound 15g, 1-(3-fluorophenyl)-3-[1-[2-[3-(2-propyl)-2-imidazolidinon-1-yl]ethyl]-4-piperidyl]-6-methyl-1H-indole] | 0.011 µM |  |  |  | 3.2 µM | 0.67 µM |
| Cc1ccc2c(C3CCN(CCN4CCN(C(C)C)C4=O)CC3)cn(-c3ccc(Cl)cc3)c2c1 [Compound 15h, 1-(4-chlorophenyl)-3-[1-[2-[3-(2-propyl)-2-imidazolidinon-1-yl]ethyl]-4-piperidyl]-6-methyl-1H-indole] | 0.006 µM |  |  |  | 0.62 µM | 0.45 µM |
| CC(C)N1CCN(CCN2CCC(c3cn(-c4ccccc4F)c4cc(Cl)ccc34)CC2)C1=O [Compound 15j, 6-chloro-1-(2-fluorophenyl)-3-[1-[2-[3-(2-propyl)-2-imidazolidinon-1-yl]ethyl]-4-piperidyl]-1H-indole] | 0.0037 µM | 0.08 µmol/kg |  |  | 0.3 µM | 0.12 µM |
| Cc1ccc2c(c1)N(c1ccc(F)cc1)CC2C1CCN(CCN2CCN(C(C)C)C2=O)CC1 (centres unmarked) [Compound 20a, 1-(4-fluorophenyl)-6-methyl-3-[1-[2-[3-(2-propyl)-2-imidazolidinon-1-yl]ethyl]-4-piperidyl]-2,3-dihydro-1H-indole] | 0.0053 µM | 0.49 µmol/kg |  |  | 0.18 µM |  |
| Cc1c(C2CCN(CCN3CCNC3=O)CC2)c2ccccc2n1-c1ccc(F)cc1 [Compound 24c, 1-(4-fluorophenyl)-3-[1-[2-(2-imidazolidinon-1-yl)ethyl]-4-piperidyl]-2-methyl-1H-indole] | 0.00069 µM |  |  |  | 0.38 µM | 0.061 µM |
| CN(C)CCSc1nc2ccccc2cc1-c1ccccc1 [ICI 169369, reference compound] | 0.015 µM | > 3.6 µmol/kg |  |  | 0.49 µM | 0.3 µM |

— patent US5216001A, “Indole derivatives” (H. Lunbeck A/S, priority 1990, dated 1993)
